Measured values: US20230167127A1, “COMPOUNDS AND THEIR USE IN THE TREATMENT OF BACTERIAL INFECTION” (Hoffmann-La Roche Inc., priority 2020, published 2023)
Structures can show the parent of a compound that is named as a salt.

Test system: Escherichia coli ATCC 25922
Experiment: 50% growth inhibitory concentration (IC50) determination, Iso-Sensitest broth dilution
Assay type: cell-based
Conditions: Escherichia coli, ATCC25922, 16 h, strain Escherichia coli ATCC 25922; 10-point broth dilution, optical density at 600 nm over 16 h; read-out: Escherichia coli growth inhibition IC50
How it was run: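 10-point twofold Iso-Sensitest broth dilution (e.g. 50 to 0.097 μM final) with DMSO stocks, incubated at 35±2° C. Growth followed by OD 600 nm every 20 min over 16 h; IC50 derived from growth inhibition during logarithmic phase.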

Going from `N#Cc1cccc2c1CC(CNCCC1CN(c3ccc4c(n3)NC(=O)CO4)C(=O)O1)C2O` (racemic) [Example 139, rac-1,2-trans-1-hydroxy-2-[[2-[2-oxo-3-(3-oxo-4H-pyrido[3,2-b][1,4]oxazin-6-yl)-1,3-oxazolidin-5-yl]ethylamino]methyl]-2,3-dihydro-1H-indene-4-carbonitrile] to `NC1c2ccnc(Cl)c2CC1CNCCC1CN(c2ccc3c(n2)NC(=O)CO3)C(=O)O1` (stereo not drawn) [Example 123, 6-[2-oxo-5-[2-[[5,6-trans-5-amino-1-chloro-6,7-dihydro-5H-cyclopenta[c]pyridin-6-yl]methylamino]ethyl]-1,3-oxazolidin-3-yl]-4H-pyrido[3,2-b][1,4]oxazin-3-one; formic acid], the IC50 falls from 513 nM to 248 nM (2.1-fold). The second is the more potent here.

First: NC(=O)COc1cc(F)c2c(c1)CC(CNCC[C@@H]1CN(c3cnc4c(n3)NC(=O)CO4)C(=O)O1)C2 (single isomer, unassigned; isomer a) [Example 381]
Second: CNC(=O)COc1cc(F)c2c(c1)CC(CNCCC1CN(c3cnc4c(n3)NC(=O)CO4)C(=O)O1)C2 (centres unmarked) [Example 310, 2-[[7-fluoro-2-[[2-[2-oxo-3-(3-oxo-4H-pyrazino[2,3-b][1,4]oxazin-6-yl)-1,3-oxazolidin-5-yl]ethylamino]methyl]-2,3-dihydro-1H-inden-5-yl]oxy]-N-methylacetamide; formic acid]
The IC50 of the first is 1.7-fold lower: 105 nM for the first, 180 nM for the second.

`Cc1nc(Cl)c2c(c1F)CC(CNCCC1CN(c3cnc4c(n3)NC(=O)CO4)C(=O)O1)C2` (centres unmarked) [Example 431, 6-[5-[2-[(1-chloro-4-fluoro-3-methyl-6,7-dihydro-5H-cyclopenta[o]pyridin-6-yl)methylamino]ethyl]-2-oxo-1,3-oxazolidin-3-yl]-4H-pyrazino[2,3-b][1,4]oxazin-3-one; formic acid] and `Cc1ncc(C#N)c2c1CC(CNCC[C@H]1CN(c3cnc4c(n3)NC(=O)CO4)C(=O)O1)C2` (stereo partly drawn) [Example 364, 1-methyl-6-[[2-[(5S)-2-oxo-3-(3-oxo-4H-pyrazino[2,3-b][1,4]oxazin-6-yl)-1,3-oxazolidin-5-yl]ethylamino]methyl]-6,7-dihydro-5H-cyclopenta[c]pyridine-4-carbonitrile] cannot be ordered by IC50: less than 97.7 nM for the first, less than 97.7 nM for the second.

First: Cc1ncc(F)c2c1CC(CCNCC1(CCO)CN(c3ccc4c(n3)NC(=O)CO4)C(=O)O1)C2 (centres unmarked) [Example 278, 6-[5-[[2-(4-fluoro-1-methyl-6,7-dihydro-5H-cyclopenta[c]pyridin-6-yl)ethylamino]methyl]-5-(2-hydroxyethyl)-2-oxo-1,3-oxazolidin-3-yl]-4H-pyrido[3,2-b][1,4]oxazin-3-one]
Second: Cc1ncc(F)c2c1CC(CN1CCC3(CN(c4ccc5c(n4)NC(=O)CO5)C(=O)O3)C(CO)C1)C2 (centres unmarked) [Example 277, 6-[8-[(4-fluoro-1-methyl-6,7-dihydro-5H-cyclopenta[c]pyridin-6-yl)methyl]-6-(hydroxymethyl)-2-oxo-1-oxa-3,8-diazaspiro[4.5]decan-3-yl]-4H-pyrido[3,2-b][1,4]oxazin-3-one]
The IC50 of the first is 3-fold higher: 1890 nM for the first, 628 nM for the second.

`O=C1COc2ncc(N3CC(CCNCC4Cc5cc(O)cc(F)c5C4)OC3=O)nc2N1` (centres unmarked) [Example 317, 6-[5-[2-[(4-Fluoro-6-hydroxy-2,3-dihydro-1H-inden-2-yl)methylamino]ethyl]-2-oxo-1,3-oxazolidin-3-yl]-4H-pyrazino[2,3-b][1,4]oxazin-3-one] and `O=C1COc2ncc(N3CC(CCNCC4Cc5cc(OC6CNC6)cc(F)c5C4)OC3=O)nc2N1` (centres unmarked) [Example 358, 6-[5-[2-[[6-(azetidin-3-yloxy)-4-fluoro-2,3-dihydro-1H-inden-2-yl]methylamino]ethyl]-2-oxo-1,3-oxazolidin-3-yl]-4H-pyrazino[2,3-b][1,4]oxazin-3-one; hydrochloride] cannot be ordered by IC50: less than 97.7 nM for the first, less than 97.7 nM for the second.

First: CN(C)C(=O)COc1cc(F)c2c(c1)CC(CNCCC1CN(c3ccc4c(n3)NC(=O)CO4)C(=O)O1)C2 (centres unmarked) [Example 77, 2-[[7-fluoro-2-[[2-[2-oxo-3-(3-oxo-4H-pyrido[3,2-b][1,4]oxazin-6-yl)-1,3-oxazolidin-5-yl]ethylamino]methyl]-2,3-dihydro-1H-inden-5-yl]oxy]-N,N-dimethylacetamide]
Second: CC(N)COc1cc(C#N)c2c(c1)CC(CNCCC1CN(c3ccc4c(n3)NC(=O)CO4)C(=O)O1)C2 (centres unmarked) [Example 192, 6-(2-aminopropoxy)-2-[[2-[2-oxo-3-(3-oxo-4H-pyrido[3,2-b][1,4]oxazin-6-yl)-1,3-oxazolidin-5-yl]ethylamino]methyl]-2,3-dihydro-1H-inclene-4-carbonitrile; 2,2,2-trifluoroacetic acid]
The IC50 of the first is higher: 393 nM for the first, less than 97.7 nM for the second. The second is the more potent here.

Going from `O=C1COc2ccc(N3CC(CCCNCC4Cc5cccc(Cl)c5C4)OC3=O)nc2N1` (centres unmarked) [Example 2, 6-[5-[3-[(4-chloro-2,3-dihydro-1H-inden-2-yl)methylamino]propyl]-2-oxo-1,3-oxazolidin-3-yl]-4H-pyrido[3,2-b][1,4]oxazin-3-one] to `N#Cc1c(OCC2CNC2)ccc2c1CC(CNCCC1CN(c3ccc4c(n3)NC(=O)CO4)C(=O)O1)C2` (centres unmarked) [Example 129, 5-(azetidin-3-ylmethoxy)-2-[[2-[2-oxo-3-(3-oxo-4H-pyrido[3,2-b][1,4]oxazin-6-yl)-1,3-oxazolidin-5-yl]ethylamino]methyl]-2,3-dihydro-1H-indene-4-carbonitrile; formic acid], the IC50 rises from 332 nM to 692 nM (2.1-fold). The first is the more potent here.

Compared with `CNC(=O)COc1cc(Cl)c2c(c1)C(N)C(CNCCC1CN(c3cnc4c(n3)NC(=O)CO4)C(=O)O1)C2` (racemic) [Example 399, 2-[[rac-2,3-trans-3-Amino-7-chloro-2-[[2-[2-oxo-3-(3-oxo-4H-pyrazino[2,3-b][1,4]oxazin-6-yl)-1,3-oxazolidin-5-yl]ethylamino]methyl]-2,3-dihydro-1H-inden-5-yl]oxy]-N-methylacetamide; formic acid], `CNC(=O)COc1ccc2c(c1Cl)CC(CNCCC1CN(c3cnc4c(n3)NC(=O)CO4)C(=O)O1)C2` (centres unmarked) [Example 109, 2 2-[[4-chloro-2-[[2-[2-oxo-3-(3-oxo-4H-pyrazino[2,3-b][1,4]oxazin-6-yl)-1,3-oxazolidin-5-yl]ethylamino]methyl]-2,3-dihydro-1H-inden-5-yl]oxy]-N-methylacetamide] is 11-fold lower in IC50: 1120 nM for the first, 98 nM for the second. The second is the more potent here.

Compared with `N#Cc1nc(OCC2(N)CC2)cc2c1CC(CNCCC1CN(c3ccc4c(n3)NC(=O)CO4)C(=O)O1)C2` (centres unmarked) [Example 125], `NC1(COc2cc(Cl)c3c(c2)CC(NCCCC2CN(c4ccc5c(n4)NC(=O)CO5)C(=O)O2)C3)CC1` (centres unmarked) [Example 180, 6-[5-[3-[[6-[(1-aminocyclopropyl)methoxy]-4-chloro-2,3-dihydro-1H-inden-2-yl]amino]propyl]-2-oxo-1,3-oxazolidin-3-yl]-4H-pyrido[3,2-b][1,4]oxazin-3-one] is lower in IC50: 111 nM for the first, less than 97.7 nM for the second.

Compared with `O=C1COc2ccc(N3CC([C@H]4C[C@H](NC5Cc6cccc(Cl)c6C5)C4)OC3=O)nc2N1` (stereo partly drawn) [Example 17, 6-[5-[trans-3-[(4-chloro-2,3-dihydro-1H-inden-2-yl)amino]cyclobutyl]-2-oxo-1,3-oxazolidin-3-yl]-4H-pyrido[3,2-b][1,4]oxazin-3-one], `O=C1COc2ccc(N3CC(CCNC4Cc5ccc(Cl)cc5C4)OC3=O)nc2N1` (centres unmarked) [Example 11, 6-[5-[2-[(5-chloro-2,3-dihydro-1H-inden-2-yl)amino]ethyl]-2-oxo-1,3-oxazolidin-3-yl]-4H-pyrido[3,2-b][1,4]oxazin-3-one] is 2.9-fold higher in IC50: 823 nM for the first, 2400 nM for the second. The first is the more potent here.

Compared with `Cc1nc(OCC2CNC2)c(C)c2c1CC(CNCCC1CN(c3ccc4c(n3)NC(=O)CO4)C(=O)O1)C2` (centres unmarked) [Example 184, 6-[5-[2-[[3-(azetidin-3-ylmethoxy)-1,4-dimethyl-6,7-dihydro-5H-cyclopenta[c]pyridin-6-yl]methylamino]ethyl]-2-oxo-1,3-oxazolidin-3-yl]-4H-pyrido[3,2-b][1,4]oxazin-3-one hydrochloride], `N#Cc1cc(OCc2cocn2)cc2c1CC(CNCCC1CN(c3cnc4c(n3)NC(=O)CO4)C(=O)O1)C2` (centres unmarked) [Example 386, 6-(1,3-oxazol-4-ylmethoxy)-2-[[2-[2-oxo-3-(3-oxo-4H-pyrazino[2,3-b][1,4]oxazin-6-yl)-1,3-oxazolidin-5-yl]ethylamino]methyl]-2,3-dihydro-1H-indene-4-carbonitrile] is lower in IC50: 425 nM for the first, less than 97.7 nM for the second. The second is the more potent here.

First: N#Cc1cccc2c1CC(CN1CCC3(CN(c4ccc5c(n4)NC(=O)CO5)C(=O)O3)C(CN)C1)C2 (racemic) [Example 249, 2-[[rac-5,6-trans-6-(Aminomethyl)-2-oxo-3-(3-oxo-4H-pyrido[3,2-b][1,4]oxazin-6-yl)-1-oxa-3,8-diazaspiro[4.5]decan-8-yl]methyl]-2,3-dihydro-1H-indene-4-carbonitrile; formic acid]
Second: Cc1c(OCC2CNC(=O)CN2)nc(C#N)c2c1CC(CN1CCC3(CC1)CN(c1ccc4c(n1)NC(=O)CO4)C(=O)O3)C2 (centres unmarked) [Example 220, 4-methyl-6-((2-oxo-3-(3-oxo-3,4-dihydro-2H-pyrido[3,2-b][1,4]oxazin-6-yl)-1-oxa-3,8-diazaspiro[4.5]decan-8-yl)methyl)-3-((5-oxopiperazin-2-yl)methoxy)-6,7-dihydro-5H-cyclopenta[c]pyridine-1-carbonitrile]
The IC50 of the first is 3-fold lower: 108 nM for the first, 319 nM for the second. The first is the more potent here.

Going from `CNC(=O)COc1ccc2c(c1F)CC(CN1CCC3(CC1)CN(c1cnc4c(n1)NC(=O)CO4)C(=O)O3)C2` (centres unmarked) [Example 336, 2-[[4-fluoro-2-[[2-oxo-3-(3-oxo-4H-pyrazino[2,3-b][1,4]oxazin-6-yl)-1-oxa-3,8-diazaspiro[4.5]decan-8-yl]methyl]-2,3-dihydro-1H-inden-5-yl]oxy]-N-methylacetamide] to `O=C1COc2ncc(N3CC(CCNCC4Cc5cc(OCC(=O)N6CCC6)cc(F)c5C4)OC3=O)nc2N1` (centres unmarked) [Example 307, 6-[5-[2-[[6-[2-(azetidin-1-yl)-2-oxoethoxy]-4-fluoro-2,3-dihydro-1H-inden-2-yl]methylamino]ethyl]-2-oxo-1,3-oxazolidin-3-yl]-4H-pyrazino[2,3-b][1,4]oxazin-3-one; formic acid], the IC50 rises from less than 97.7 nM to 359 nM. The first is the more potent here.
